Laboratory results taken from patent US20250136619A1, “HETEROBIFUNCTIONAL COMPOUNDS AND THEIR USE IN TREATING DISEASE” (HALDA THERAPEUTICS OPCO, INC., priority 2021, published 2025).
Read-outs that look alike come from different tables or passages of the source.

Columns and labels:
[1] = system: HeLa cells; test: Cellular growth inhibition assay (CellTiter-Glo), HeLa cells; format: cell-based; details: read-out: CTG HELA GI50
Protocol: (§1) HEK293 and HeLa cells were cultured in DMEM medium supplemented with 10% fetal bovine serum and 1% Penn/Strep. Cells were seeded in white 384-well plates at 500 cells/well in […] complete medium. Following seeding, plates were spun at 300×g for three minutes and cultured at 37° C. with 5% CO2 in a humidified tissue culture incubator.
(§2) After 24 hours, compounds were titrated in 100% DMSO and diluted in complete cell culture medium. […] of compound/media mixture was added to cells to bring total volume in well to […]. DMSO alone was used as a negative control. Plates were then spun at 300×g for three minutes and stored at 37° C. with 5% CO2 for three days.
(§3) On Day 0 and Day 3 of compound treatment, cell viability was quantified with CellTiter-Glo 2.0 reagent (Promega). After equilibrating microplates at room temperature for 30 minutes, 25 μL CellTiter-Glo 2.0 reagent was dispensed into each well to bring total volume to […]. Plates were mixed on shaker for 2 minutes at 500 rpm, followed by a 10-minute incubation at room temperature. Following a quick spin, luminescence readings were measured with an En Vision Plate Reader. Data was normalized to DMSO treated Day 0 and Day 3 readings. A four-parameter non-linear regression curve fit was applied to dose-response data in GraphPad Prism data analysis software to determine the half maximal growth inhibitory concentration (GI50) for each compound.

[2] = system: HEK293 cells; test: Cellular growth inhibition assay (CellTiter-Glo), HEK293 cells; format: cell-based; details: read-out: CTG HEK293 GI50
Protocol: as §1, §2, §3

[3] = Homo sapiens, 72 h, HeLa cells, three days of compound treatment, CellTiter-Glo 2.0
[4] = Homo sapiens, 72 h, HEK293 cells, three days of compound treatment, CellTiter-Glo 2.0
[5] = HeLa cells, three days of compound treatment, CellTiter-Glo 2.0
[6] = HEK293 cells, three days of compound treatment, CellTiter-Glo 2.0

CN(CCNS(=O)(=O)c1cc(F)cc(N(C(=O)[C@@H]2CCC(=O)N2c2cc(C#N)ccn2)[C@@H](C(=O)NC2CC(F)(F)C2)c2ccccc2Cl)c1)C(=O)N1N=C(c2cc(F)ccc2F)SC1(CCCN)c1ccccc1 (stereo partly drawn) [Compound I-113, 2-(3-aminopropyl)-N-[2-[[3-[[(1R)-1-(2-chlorophenyl)-2-[(3,3-difluorocyclobutyl)amino]-2-oxo-ethyl]-[(2S)-1-(4-cyano-2-pyridyl)-5-oxo-pyrrolidine-2-carbonyl]amino]-5-fluoro-phenyl]sulfonylamino]ethyl]-5-(2,5-difluorophenyl)-N-methyl-2-phenyl-1,3,4-thiadiazole-3-carboxamide]
GI50 [1, 3]: > 5000 nM | GI50 [2, 4]: > 5000 nM

CCc1cnn2c(NCc3ccc(=O)n(CCOCCOCCOCCOCCCc4cc(-c5cnc([C@H](C)Nc6nccc(N7C(=O)OC[C@@H]7[C@H](C)F)n6)cc5C)cc(C(F)(F)F)n4)c3)cc(N3CCCC[C@H]3CCO)nc12 [Compound I-103]
GI50 [1, 5]: 500 to 1500 nM | GI50 [2, 6]: 500 to 1500 nM

C=CC(=O)N1CCN([C@@H](CC2CC2)c2ccc([C@H](C)Nc3ncc4c(n3)N(CCOCCOCCOCCOCCOc3ccc(CNc5cc(N6CCCC[C@H]6CCO)nc6c(CC)cnn56)cn3)C(=O)OC4)cc2)CC1 [Compound I-57]
GI50 [1, 3]: < 500 nM | GI50 [2, 4]: < 500 nM

C=CC(=O)N1CCN([C@@H](CC2CC2)c2ccc([C@H](C)Nc3ncc4c(n3)N(CCOCCOCCOCCOCCOCCOCCON(C)C(=O)N3N=C(c5cc(F)ccc5F)SC3(CCCN)c3ccccc3)C(=O)OC4)cc2)CC1 (stereo partly drawn) [Compound I-60]
GI50 [1, 3]: 500 to 1500 nM | GI50 [2, 4]: 1500 to 5000 nM

CCc1cnn2c(NCc3ccc(=O)n(CCOCCOCCOCCOCCNS(=O)(=O)c4cc(F)cc(N(C(=O)[C@@H]5CCC(=O)N5c5cc(C#N)ccn5)C(C(=O)NC5CC(F)(F)C5)c5ccccc5Cl)c4)c3)cc(N3CCCC[C@H]3CCO)nc12 (stereo partly drawn) [Compound I-95]
GI50 [1, 5]: 500 to 1500 nM | GI50 [2, 6]: 1500 to 5000 nM

CCc1cnn2c(NCc3ccc(OCCOCCOCCOCCOCCCc4cc(-c5cnc([C@H](C)Nc6nccc(N7C(=O)OC[C@@H]7[C@H](C)F)n6)cc5C)cc(C(F)(F)F)n4)nc3)cc(N3CCCC[C@H]3CCO)nc12 [Compound I-102]
GI50 [1, 5]: < 500 nM | GI50 [2, 6]: < 500 nM

CN(CCOCCOCCNS(=O)(=O)c1cc(F)cc(N(C(=O)[C@@H]2CCC(=O)N2c2cc(C#N)ccn2)C(C(=O)NC2CC(F)(F)C2)c2ccccc2Cl)c1)C(=O)N1N=C(c2cc(F)ccc2F)SC1(CCCN)c1ccccc1 (stereo partly drawn) [Compound I-114, 2-(3-aminopropyl)-N-[2-[2-[2-[[3-[[1-(2-chlorophenyl)-2-[(3,3-difluorocyclobutyl)amino]-2-oxo-ethyl]-[(2S)-1-(4-cyano-2-pyridyl)-5-oxo-pyrrolidine-2-carbonyl]amino]-5-fluoro-phenyl]sulfonylamino]ethoxy]ethoxy]ethyl]-5-(2,5-difluorophenyl)-N-methyl-2-phenyl-1,3,4-thiadiazole-3-carboxamide]
GI50 [1, 3]: 1500 to 5000 nM | GI50 [2, 4]: > 5000 nM

CCc1cnn2c(NCc3ccc(OCCCc4cc(-c5cnc([C@H](C)Nc6nccc(N7C(=O)OC[C@@H]7[C@H](C)F)n6)cc5C)cc(C(F)(F)F)n4)nc3)cc(N3CCCC[C@H]3CCO)nc12 [Compound I-101]
GI50 [1, 5]: < 500 nM | GI50 [2, 6]: < 500 nM

CN(C/C=C/C(=O)N1CCC[C@@H](n2nc(-c3ccc(Oc4ccccc4)cc3)c3c(N)ncnc32)C1)CCOCCOCCOCCOCCOCCOCCNS(=O)(=O)c1ccc(Nc2ncc(Br)c(Nc3cccc(F)c3C(N)=O)n2)cc1 [Compound I-65, 2-[[2-[4-[2-[2-[2-[2-[2-[2-[2-[[(E)-4-[(3R)-3-[4-amino-3-(4-phenoxyphenyl)pyrazolo[3,4-d]pyrimidin-1-yl]-1-piperidyl]-4-oxo-but-2-enyl]-methyl-amino]ethoxy]ethoxy]ethoxy]ethoxy]ethoxy]ethoxy]ethylsulfamoyl]anilino]-5-bromo-pyrimidin-4-yl]amino]-6-fluoro-benzamide]
GI50 [1, 3]: 1500 to 5000 nM | GI50 [2, 4]: > 5000 nM

CCc1cnn2c(NCc3ccc(OCCOCCOCCOCCOCCOCCOCCOC/C=C/C(=O)N4CCC[C@@H](n5nc(-c6ccc(Oc7ccccc7)cc6)c6c(N)ncnc65)C4)nc3)cc(N3CCCC[C@H]3CCO)nc12 [Compound I-45]
GI50 [1, 3]: 500 to 1500 nM | GI50 [2, 4]: 500 to 1500 nM

CCc1cnn2c(NCc3ccc(OCCCCCn4c(C#N)ccc(N[C@@H](C)c5cc6cc(Cl)ccc6[nH]c5=O)c4=O)nc3)cc(N3CCCC[C@H]3CCO)nc12 [Compound I-89]
GI50 [1, 5]: < 500 nM | GI50 [2, 6]: 1500 to 5000 nM

CC(C)(C)c1[nH]cnc1/C=c1\[nH]c(=O)/c(=C/c2ccccc2)n(CCOCCOCC(=O)N2CC(=O)N(c3cc(C#N)ccn3)[C@H](C(=O)N(c3cc(F)cc(F)c3)[C@H](C(=O)NC3CC(F)(F)C3)c3ccccc3Cl)C2)c1=O [Compound I-109, (2S)-4-[2-[2-[2-[(2Z,5Z)-2-benzylidene-5-[(5-tert-butyl-1H-imidazol-4-yl)methylene]-3,6-dioxo-piperazin-1-yl]ethoxy]ethoxy]acetyl]-N-[(1S)-1-(2-chlorophenyl)-2-[(3,3difluorocyclobutyl)amino]-2-oxo-ethyl]-1-(4-cyano-2-pyridyl)-N-(3,5-difluorophenyl)-6-oxo-piperazine-2-carboxamide]
GI50 ([1]; Homo sapiens, HeLa, 72 h): > 5000 nM | GI50 ([2]; Homo sapiens, HEK293, 72 h): > 5000 nM

CCS(=O)(=O)Nc1ccc(Oc2cccc(OCCOCCOCCOCCOCC(=O)N3CC(=O)N(c4cc(C#N)ccn4)[C@H](C(=O)N(c4cc(F)cc(F)c4)C(C(=O)NC4CC(F)(F)C4)c4ccccc4Cl)C3)c2)c(-c2cn(C)c(=O)c3[nH]ccc23)c1 (stereo partly drawn) [Compound I-108, (2S)—N-[1-(2-chlorophenyl)-2-[(3,3-difluorocyclobutyl)amino]-2-oxo-ethyl]-1-(4-cyano-2-pyridyl)-N-(3,5-difluorophenyl)-4-[2-[2-[2-[2-[2-[3-[4-(ethylsulfonylamino)-2-(6-methyl-7-oxo-1 H-pyrrolo[2,3-c]pyridin-4-yl)phenoxy]phenoxy]ethoxy]ethoxy]ethoxy]ethoxy]acetyl]-6-oxo-piperazine-2-carboxamide]
GI50 [1, 3]: < 500 nM | GI50 [2, 4]: > 5000 nM

CCc1cnn2c(NCc3ccc(=O)n(CCOCCOCCCc4cc(-c5cnc([C@H](C)Nc6nccc(N7C(=O)OC[C@@H]7[C@H](C)F)n6)cc5C)cc(C(F)(F)F)n4)c3)cc(N3CCCC[C@H]3CCO)nc12 [Compound I-100, (4R)-3-[2-[[(1S)-1-[5-[2-[3-[2-[2-[5-[[3-ethyl-5-[(2S)-2-(2-hydroxyethyl)-1-piperidyl]pyrazolo[1,5-a]pyrimidin-7-yl]aminomethyl]-2-oxo-1-pyridyl]ethoxy]ethoxy]propyl]-6-(trifluoromethyl)-4-pyridyl]-4-methyl-2-pyridyl]ethyl]amino]pyrimidin-4-yl]-4-[(1S)-1-fluoroethyl]oxazolidin-2-one]
GI50 [1, 3]: < 500 nM | GI50 [2, 4]: < 500 nM

CCS(=O)(=O)Nc1ccc(Oc2cccc(OCCOCCOCC(=O)N3CC(=O)N(c4cc(C#N)ccn4)[C@H](C(=O)N(c4cc(F)cc(F)c4)[C@H](C(=O)NC4CC(F)(F)C4)c4ccccc4Cl)C3)c2)c(-c2cn(C)c(=O)c3[nH]ccc23)c1 [Compound I-107, (2S)—N-[(1S)-1-(2-chlorophenyl)-2-[(3,3-difluorocyclobutyl)amino]-2-oxo-ethyl]-1-(4-cyano-2-pyridyl)-N-(3,5-difluorophenyl)-4-[2-[2-[2-[3-[4-(ethylsulfonylamino)-2-(6-methyl-7-oxo-1H-pyrrolo[2,3-c]pyridin-4-yl)phenoxy]phenoxy]ethoxy]ethoxy]acetyl]-6-oxo-piperazine-2-carboxamide]
GI50 [1, 3]: 500 to 1500 nM | GI50 [2, 4]: > 5000 nM
